We go through three molecules from patent US4533747A, “Leukotriene antagonists intermediates” (SmithKline Beckman Corporation, priority 1983, dated 1985).

Molecules are shown by their SMILES.

This assay concerns the target T1, leukotriene (LTD4) induced contraction of guinea pig tracheal tissues (Cavia porcellus, UniProt Q2NNR5).
T1 construct: Guinea pig (adult male albino Hartley strain) tracheal spiral strips; from tissue; host or cells: guinea pig (adult male albino Hartley strain) tracheal spiral strips
T1 sequence (Q2NNR5 1-340): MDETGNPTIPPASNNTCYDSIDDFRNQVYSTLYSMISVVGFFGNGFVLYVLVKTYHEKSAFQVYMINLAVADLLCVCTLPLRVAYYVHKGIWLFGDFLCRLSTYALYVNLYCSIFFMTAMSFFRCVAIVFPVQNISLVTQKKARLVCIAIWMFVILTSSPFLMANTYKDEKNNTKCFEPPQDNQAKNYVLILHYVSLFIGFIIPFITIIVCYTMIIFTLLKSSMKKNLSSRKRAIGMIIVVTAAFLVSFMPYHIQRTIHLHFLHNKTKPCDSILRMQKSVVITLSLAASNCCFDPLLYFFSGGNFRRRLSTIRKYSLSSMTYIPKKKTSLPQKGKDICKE
As to the kind of experiment: Inhibition of LTD4-induced contraction of guinea pig tracheal tissues in vitro. In kind it is cell-based, Guinea pig (adult male albino Hartley strain). The following applies: LTD4 cumulative concentration-response; guinea pig tracheal spiral strips; 30 min pretreatment with test compound; meclofenamic acid 1 μM; EC30 relative to carbachol 10 μM; read-out: pA2 (converted). Here is the method:
The leukotriene antagonist activity of the compounds of formula (II) is measured by the ability of the compound to inhibit leukotriene induced contraction of guinea pig tracheal tissues in vitro. The following methodology was employed:
In vitro: Guinea pig (adult male albino Hartley strain) tracheal spiral strips of approximate dimensions 2 to 3 mm cross-sectional width and 3.5 cm length were bathed in modified Krebs buffer in jacketed 10 ml tissue bath and continously aerated with 95% O2 /5% CO2. The tissues were connected via silk suture to force displacement transducers for recording isometric tension. The tissues were equilibrated for 1 hr., pretreated for 15 minutes with meclofenamic acid (1 μM) to remove intrinsic prostaglandin responses, and then pretreated for an additional 30 minutes with either the test compound or vehicle control. A cumulative concentration-response curve for LTD4 on triplicate tissues was generated by successive increases in the bath concentration of the LTD4. In order to minimize intertissue variability, the contractions elicited by LTD4 were standardized as a percentage of the maximum response obtained to a reference agonist, carbachol (10 μM).
Calculations: The averages of the triplicate LTD4 concentration-response curves both in the presence and absence of the test compound were plotted on log graph paper. The concentration of LTD4 needed to elicit 30% of the contraction elicited by carbachol was measured and defined as the EC30. The pA2 value for the test compound as determined by the following equations: [formula]
Consider `CCCCCCCCCCCC/C=C\C(CO)SCCC(=O)O` (stereo not drawn) [2-[(2-Carboxyethyl)thio]-3(Z)-hexadecen-1-ol], for which the Kb was 5010 nM.
With `CCCCCCCCCCCC/C=C\C(SCCC(=O)O)C(=O)O` (stereo not drawn) [2-[(2-Carboxyethyl)thio]-3(Z)-hexadecenoic acid] the figure was 1000 nM.
With `CCCCCCCCCCCC/C=C\C(SCCC(=O)O)C(O)CC(=O)O` (stereo not drawn) [3-Hydroxy-4-[(2-carboxyethyl)thio]-5(Z)-octadecenoic acid] the figure was 794 nM.
